Measured values reported in PMC7098370 (Toxicological Sciences, 2020).
Marks after values point to notes of the source that are not given here.

Assays:
rats = assay: Acute oral toxicity testing; type: in vivo, rat
[1] = Plasma toxicokinetic study; type: in vivo, rat; details: for C max / K el / t 1/2 / Bioavailability (relative): 300 mg test item/kg PO; for Bioavailability (relative): vs CoCl2 IV
[2] = Mass balance study: urinary and fecal Co excretion after single oral gavage; type: in vivo, rat; details: single oral bolus 300 mg/kg bw (220 mg Co/kg bw), 72 h
Crl:CD(SD) rats [3] = assay: Subchronic 90-day oral RDT study with reproductive toxicity screening; type: in vivo, rat
Crl:CD(SD) rats [4] = assay: Combined RDT study with reproduction/developmental toxicity screening test; type: in vivo, rat; details: for mean body weight of pups below the control: high dose
Crl:CD(SD) rats [5] = assay: Benchmark dose modeling; set-up: species or system rat; details: nonconstant variance
[6] = Bioelution in simulated gastric fluid; details: simulated gastric fluid pH 1.5, 2 h, 37°C
[7] = Bioelution in simulated intestinal fluid; details: simulated intestinal fluid pH 7.4, 24 h
[8] = females, 73.4 mg Co/kg bw/day, end of 90-day oral exposure, experimental group
[9] = females, 220 mg Co/kg bw/day, end of 90-day oral exposure, experimental group
[10] = females, 734 mg Co/kg bw/day, end of 90-day oral exposure, experimental group
[11] = females, 734 mg Co/kg bw/day, recovery group, end of 28-day recovery period
[12] = females, 734 mg Co/kg bw/day, recovery group, end of 90-day oral exposure
[13] = males, 73.4 mg Co/kg bw/day, end of 90-day oral exposure, experimental group
[14] = males, 220 mg Co/kg bw/day, end of 90-day oral exposure, experimental group
[15] = males, 734 mg Co/kg bw/day, end of 90-day oral exposure, experimental group
[16] = males, 734 mg Co/kg bw/day, recovery group, end of 28-day recovery period
[17] = males, 734 mg Co/kg bw/day, recovery group, end of 90-day oral exposure
[18] = female HGB dataset, Exponential 5 model
[19] = male PLT dataset, Exponential 2 model

[O]=[Co].[O]=[Co][O][Co]=[O] [Co3O4, Tricobalt tetraoxide]
Acute LD50 (mg Co/kg bw) (rats; OECD 401 or 425): > 8076 mg Co/kg bw
Acute LD50 (mg substance/kg bw) (rats; OECD 401 or 425): exceeding 11 000 mg substance/kg bw
Acute LD50 (mg substance/kg bw) (rats; OECD 401 or 425, listed as Tricobalt Tetraoxide): > 11 000 mg substance/kg bw
C max ([1]; females): 1.10 ng/mL
K el ([1]; females): 0.0430 h⁻¹
t 1/2 ([1]; females): 16.1 h
C max ([1]; males): 2.08 ng/mL
K el ([1]; males): 0.0402 h⁻¹
t 1/2 ([1]; males): 17.3 h
oral bioavailability ([1]; single oral bolus, rats, males and females not distinguished): below 0.1%
Fecal Excretion (%) ([2]; females): 95.2 % of Co applied
Sum of Urinary and Fecal Excretion (%) ([2]; females): 95.3 % of Co applied
Urinary Excretion (%) ([2]; females): 0.12 % of Co applied
Fecal Excretion (%) ([2]; males): 116.4 % of Co applied
Sum of Urinary and Fecal Excretion (%) ([2]; males): 116.5 % of Co applied
Urinary Excretion (%) ([2]; males): 0.13 % of Co applied
premature deaths (Crl:CD(SD) rats [3]; 90-day oral gavage, all doses): None of the animals died prematurely
LOAEL (systemic) (Crl:CD(SD) rats [3]; 90-day oral gavage, rats): 734 mg Co/kg bw/day
NOAEL (Crl:CD(SD) rats [3]; 90-day oral gavage, rats): 220 mg Co/kg bw/day
NOAEL (reproductive) (Crl:CD(SD) rats [3]; 90-day oral gavage, rats): > 734 mg Co/kg bw/day
HCT, %Diff vs control (Crl:CD(SD) rats [3]; [8]): −0.6%
HCT, mean (Crl:CD(SD) rats [3]; [8]): 44.76%
HGB, %Diff vs control (Crl:CD(SD) rats [3]; [8]): +0.2%
HGB, mean (Crl:CD(SD) rats [3]; [8]): 9.51 mmol/L
RBC, mean (Crl:CD(SD) rats [3]; [8]): 8.17 ×10E6/µl
HCT, %Diff vs control (Crl:CD(SD) rats [3]; [9]): +4.4%
HCT, mean (Crl:CD(SD) rats [3]; [9]): 46.99%
HGB, %Diff vs control (Crl:CD(SD) rats [3]; [9]): +5.9%
HGB, mean (Crl:CD(SD) rats [3]; [9]): 10.09 mmol/L
RBC, %Diff vs control (Crl:CD(SD) rats [3]; [9]): +5.6%
RBC, mean (Crl:CD(SD) rats [3]; [9]): 8.74 ×10E6/µl
HCT, %Diff vs control (Crl:CD(SD) rats [3]; [10]): +13.9%
HCT, mean (Crl:CD(SD) rats [3]; [10]): 51.27%
HGB, %Diff vs control (Crl:CD(SD) rats [3]; [10]): +16.4%
HGB, mean (Crl:CD(SD) rats [3]; [10]): 11.09 mmol/L
RBC, %Diff vs control (Crl:CD(SD) rats [3]; [10]): +12.9%
RBC, mean (Crl:CD(SD) rats [3]; [10]): 9.35 ×10E6/µl
HCT, mean (Crl:CD(SD) rats [3]; [11]): • 40.76 • .530%
HGB, mean (Crl:CD(SD) rats [3]; [11]): • 9.28 • .450 mmol/l
RBC, mean (Crl:CD(SD) rats [3]; [11]): • 7.56 • .573 ×10E6/µl
HCT, mean (Crl:CD(SD) rats [3]; [12]): • 50.76 ^* • .013%
HGB, mean (Crl:CD(SD) rats [3]; [12]): • 10.86 ^* • .032 mmol/l
RBC, mean (Crl:CD(SD) rats [3]; [12]): • 9.12 • .17 ×10E6/µl
HCT, %Diff vs control (Crl:CD(SD) rats [3]; [13]): +2.6%
HCT, mean (Crl:CD(SD) rats [3]; [13]): 49.53%
HGB, %Diff vs control (Crl:CD(SD) rats [3]; [13]): +2.2%
HGB, mean (Crl:CD(SD) rats [3]; [13]): 10.29 mmol/L
PLT, %Diff vs control (Crl:CD(SD) rats [3]; [13]): +4.2%
PLT, mean (Crl:CD(SD) rats [3]; [13]): 896.5 ×10E3/µl
RBC, %Diff vs control (Crl:CD(SD) rats [3]; [13]): +1.1%
RBC, mean (Crl:CD(SD) rats [3]; [13]): 9.30 ×10E6/µl
HCT, %Diff vs control (Crl:CD(SD) rats [3]; [14]): +9.2%
HCT, mean (Crl:CD(SD) rats [3]; [14]): 52.73%
HGB, %Diff vs control (Crl:CD(SD) rats [3]; [14]): +9.5%
HGB, mean (Crl:CD(SD) rats [3]; [14]): 11.03 mmol/L
PLT, mean (Crl:CD(SD) rats [3]; [14]): 796.1 ×10E3/µl
RBC, %Diff vs control (Crl:CD(SD) rats [3]; [14]): +9.6%
RBC, mean (Crl:CD(SD) rats [3]; [14]): 10.08 ×10E6/µl
HCT, %Diff vs control (Crl:CD(SD) rats [3]; [15]): +24.2%
HCT, mean (Crl:CD(SD) rats [3]; [15]): 59.97%
HGB, %Diff vs control (Crl:CD(SD) rats [3]; [15]): +25.4%
HGB, mean (Crl:CD(SD) rats [3]; [15]): 12.63 mmol/L
PLT, mean (Crl:CD(SD) rats [3]; [15]): 573.9 ×10E3/µl
RBC, %Diff vs control (Crl:CD(SD) rats [3]; [15]): +22.7%
RBC, mean (Crl:CD(SD) rats [3]; [15]): 11.29 ×10E6/µl
HCT, mean (Crl:CD(SD) rats [3]; [16]): • 50.38 • .126%
HGB, mean (Crl:CD(SD) rats [3]; [16]): • 10.82 • .075 mmol/l
PLT, mean (Crl:CD(SD) rats [3]; [16]): • 882.4 • .285 ×10E3/µl
RBC, mean (Crl:CD(SD) rats [3]; [16]): • 9.47 • .052 ×10E6/µl
HCT, mean (Crl:CD(SD) rats [3]; [17]): • 60.96** • 9.1E−06%
HGB, mean (Crl:CD(SD) rats [3]; [17]): • 12.78** • 2.4E−06 mmol/l
PLT, mean (Crl:CD(SD) rats [3]; [17]): • 645.6** • .0085 ×10E3/µl
RBC, mean (Crl:CD(SD) rats [3]; [17]): • 11.3** • 7.1E−05 ×10E6/µl
food intake of dams reduced compared with the control (Crl:CD(SD) rats [4]; 220 mg Co/kg bw/day, lactation day 1): 30%
mean body weight of pups below the control (Crl:CD(SD) rats [4]; lactation day 0/1): up to 18%
mean body weight of pups below the control (Crl:CD(SD) rats [4]; lactation day 4): up to 21%
premature deaths (Crl:CD(SD) rats [4]; oral gavage, all doses): None of the animals died prematurely
NOAEL (F0 generation) (Crl:CD(SD) rats [4]; oral gavage, rats): 734 mg Co/kg bw/day
NOAEL (F1 generation) (Crl:CD(SD) rats [4]; oral gavage, rats): 220 mg Co/kg bw/day
NOAEL (reproductive toxicity) (Crl:CD(SD) rats [4]; oral gavage, rats): > 734 mg test item/kg bw/day
BMD1STD (Crl:CD(SD) rats [5]; [18]): 210 mg Co/kg bw/day
BMDL1STD (Crl:CD(SD) rats [5]; [18]): 115 mg Co/kg bw/day
BMD1STD (Crl:CD(SD) rats [5]; [19]): 317 mg Co/kg bw/day
BMDL1STD (Crl:CD(SD) rats [5]; [19]): 219 mg Co/kg bw/day
Bioelution of Co in gastric fluid (% release), 2 h [6]: 0.2 % release
Bioelution of Co in gastric fluid / cobalt release (µg Co/g sample), 2 h [6]: 1460 µg Co/g sample
Bioelution of Co in intestinal fluid (% release) [7]: 0.05 (24 h) % release
Bioelution of Co in intestinal fluid / cobalt release (µg Co/g sample) [7]: 385 (24 h) µg Co/g sample

[Li+].[O]=[Co][O-] [CoLiO2, Cobalt lithium oxide]
Acute LD50 (mg Co/kg bw) (rats; OECD 401 or 425): > 3011 mg Co/kg bw
Acute LD50 (mg substance/kg bw) (rats; OECD 401 or 425, listed as Co Lithium Dioxide): > 5000 mg substance/kg bw
C max ([1]; females): 2.88 ng/mL
K el ([1]; females): 0.0568 h⁻¹
t 1/2 ([1]; females): 12.20 h
Bioavailability (relative) ([1]; females): 0.25 (relative) %
Bioavailability (relative) ([1]; females, listed as Co lithium dioxide): 0.25%
C max ([1]; males): 3.45 ng/mL
K el ([1]; males): 0.0535 h⁻¹
t 1/2 ([1]; males): 13.0 h
Bioavailability (relative) ([1]; males): 0.30 (relative) %
Bioavailability (relative) ([1]; males, listed as Co lithium dioxide): 0.3%
Bioavailability calculated from AUC as % of CoCl2 IV AUC, average of m + f: relative bioavailability ([1]; oral, rats, average of males and females): Relative bioavailability 0.28%
Bioelution of Co in gastric fluid (% release), 2 h [6]: 5.9 % release
Bioelution of Co in intestinal fluid (% release) [7]: 0.02 (24 h) % release
Bioelution of Co in intestinal fluid / cobalt release (µg Co/g sample) ([7]; listed as Co Lithium Dioxide): 134 (24 h) µg Co/g sample
